Results as given in US12077503B2, “Substituted cyclic amides and their use as herbicides” (FMC CORPORATION, priority 2015, dated 2024).

Legend:
Format in all cases: in vivo
[1] = system: redroot pigweed (Amaranthus retroflexus); experiment: Test G Post-Emergence Protocol; conditions: Amaranthus retroflexus, post-emergence, 312 h, read-out: Pigweed, Redroot damage rating; for pest or weed control at 15.625 g/ha: 15.625 g ai/ha, evaluated after 13 days (100=total damage to plant; 0=no damage to plant); for pest or weed control at 62.5 g/ha: 62.5 g ai/ha; for pest or weed control at 62.5 g/ha / pest or weed control at 250 g/ha: evaluated after 13 days, 100=total damage to plant, 0=no damage to plant; for pest or weed control at 250 g/ha: 250 g ai/ha
How it was run: (§1)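 Sow in soil; grow 8 d (24/16 °C, 14 h light, 65% humidity); spray 15.625/62.5/250 g/ha in acetone:water 50:50 + 0.5% Tween 20; grow on, water twice daily; score damage 0–100 at 13 d.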

[2] = system: giant foxtail (Setaria faberi); experiment: Test G Post-Emergence Protocol; conditions: Setaria faberi, post-emergence, 312 h, read-out: Foxtail, Giant damage rating; for pest or weed control at 15.625 g/ha: 15.625 g ai/ha, evaluated after 13 days (100=total damage to plant; 0=no damage to plant); for pest or weed control at 62.5 g/ha: 62.5 g ai/ha
How it was run: as §1

[3] = system: ivy-leaved morning glory (Ipomoea hederacea); experiment: Test G Post-Emergence Protocol; conditions: Ipomoea, post-emergence, 312 h, read-out: Morningglory, Ivy-leaved damage rating; for pest or weed control at 15.625 g/ha: 15.625 g ai/ha, evaluated after 13 days (100=total damage to plant; 0=no damage to plant); for pest or weed control at 62.5 g/ha: 62.5 g ai/ha; for pest or weed control at 62.5 g/ha / pest or weed control at 250 g/ha: evaluated after 13 days, 100=total damage to plant, 0=no damage to plant; for pest or weed control at 250 g/ha: 250 g ai/ha
How it was run: as §1

corn (Zea mays) [4] = experiment: Test G Post-Emergence Protocol; conditions: Zea mays, post-emergence, 312 h, read-out: Corn damage rating; for plant injury at 15.625 g/ha: 15.625 g ai/ha, evaluated after 13 days (100=total damage to plant; 0=no damage to plant); for plant injury at 62.5 g/ha: 62.5 g ai/ha; for plant injury at 62.5 g/ha / plant injury at 250 g/ha: evaluated after 13 days, 100=total damage to plant, 0=no damage to plant; for plant injury at 250 g/ha: 250 g ai/ha
How it was run: as §1

[5] = system: velvetleaf (Abutilon theophrasti); experiment: Test G Post-Emergence Protocol; conditions: Abutilon theophrasti, post-emergence, 312 h, read-out: Velvetleaf damage rating; for pest or weed control at 15.625 g/ha: 15.625 g ai/ha, evaluated after 13 days (100=total damage to plant; 0=no damage to plant); for pest or weed control at 62.5 g/ha: 62.5 g ai/ha; for pest or weed control at 62.5 g/ha / pest or weed control at 250 g/ha: evaluated after 13 days, 100=total damage to plant, 0=no damage to plant; for pest or weed control at 250 g/ha: 250 g ai/ha
How it was run: as §1

[6] = system: barnyardgrass (Echinochloa crus-galli); experiment: Test G Post-Emergence Protocol; conditions: Echinochloa crus-galli, post-emergence, 312 h, read-out: Barnyardgrass damage rating; for pest or weed control at 15.625 g/ha: 15.625 g ai/ha, evaluated after 13 days (100=total damage to plant; 0=no damage to plant); for pest or weed control at 62.5 g/ha: 62.5 g ai/ha; for pest or weed control at 62.5 g/ha / pest or weed control at 250 g/ha: evaluated after 13 days, 100=total damage to plant, 0=no damage to plant; for pest or weed control at 250 g/ha: 250 g ai/ha
How it was run: as §1

[7] = system: redroot pigweed (Amaranthus retroflexus); experiment: Test G Pre-Emergence Protocol; conditions: Amaranthus retroflexus, pre-emergence, 312 h, evaluated after 13 days; for pest or weed control at 15.625 g/ha: 15.625 g ai/ha; for pest or weed control at 15.625 g/ha / pest or weed control at 250 g/ha: read-out: Pigweed, Redroot damage rating (100=total damage to plant; 0=no damage to plant); for pest or weed control at 62.5 g/ha: 62.5 g ai/ha, 100=total damage to plant, 0=no damage to plant, read-out: Pigweed, Redroot damage rating; for pest or weed control at 250 g/ha: 250 g ai/ha
How it was run: (§2)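 Visual injury (0–100) at day 13 after a single pre-emergence spray. Rates: 15.625, 62.5, 250 g/ha in acetone–water 50:50 with 0.5% Tween 20. Growth conditions: 24/16° C, 14 h light, 65% humidity.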

[8] = system: giant foxtail (Setaria faberi); experiment: Test G Pre-Emergence Protocol; conditions: Setaria faberi, pre-emergence, 312 h, evaluated after 13 days; for pest or weed control at 15.625 g/ha: 15.625 g ai/ha; for pest or weed control at 15.625 g/ha / pest or weed control at 250 g/ha: read-out: Foxtail, Giant damage rating (100=total damage to plant; 0=no damage to plant); for pest or weed control at 62.5 g/ha: 62.5 g ai/ha, 100=total damage to plant, 0=no damage to plant, read-out: Foxtail, Giant damage rating; for pest or weed control at 250 g/ha: 250 g ai/ha
How it was run: as §2

[9] = system: ivy-leaved morning glory (Ipomoea hederacea); experiment: Test G Pre-Emergence Protocol; conditions: Ipomoea, pre-emergence, 312 h, evaluated after 13 days; for pest or weed control at 15.625 g/ha: 15.625 g ai/ha; for pest or weed control at 15.625 g/ha / pest or weed control at 250 g/ha: read-out: Morningglory, Ivy-leaved damage rating (100=total damage to plant; 0=no damage to plant); for pest or weed control at 62.5 g/ha: 62.5 g ai/ha, 100=total damage to plant, 0=no damage to plant, read-out: Morningglory, Ivy-leaved damage rating; for pest or weed control at 250 g/ha: 250 g ai/ha
How it was run: as §2

corn (Zea mays) [10] = experiment: Test G Pre-Emergence Protocol; conditions: Zea mays, pre-emergence, 312 h, evaluated after 13 days; for plant injury at 15.625 g/ha: 15.625 g ai/ha; for plant injury at 15.625 g/ha / plant injury at 250 g/ha: read-out: Corn damage rating (100=total damage to plant; 0=no damage to plant); for plant injury at 62.5 g/ha: 62.5 g ai/ha, 100=total damage to plant, 0=no damage to plant, read-out: Corn damage rating; for plant injury at 250 g/ha: 250 g ai/ha
How it was run: as §2

[11] = system: velvetleaf (Abutilon theophrasti); experiment: Test G Pre-Emergence Protocol; conditions: Abutilon theophrasti, pre-emergence, 312 h, evaluated after 13 days; for pest or weed control at 15.625 g/ha: 15.625 g ai/ha; for pest or weed control at 15.625 g/ha / pest or weed control at 250 g/ha: read-out: Velvetleaf damage rating (100=total damage to plant; 0=no damage to plant); for pest or weed control at 62.5 g/ha: 62.5 g ai/ha, 100=total damage to plant, 0=no damage to plant, read-out: Velvetleaf damage rating; for pest or weed control at 250 g/ha: 250 g ai/ha
How it was run: as §2

[12] = system: barnyardgrass (Echinochloa crus-galli); experiment: Test G Pre-Emergence Protocol; conditions: Echinochloa crus-galli, pre-emergence, 312 h, evaluated after 13 days; for pest or weed control at 15.625 g/ha: 15.625 g ai/ha; for pest or weed control at 15.625 g/ha / pest or weed control at 250 g/ha: read-out: Barnyardgrass damage rating (100=total damage to plant; 0=no damage to plant); for pest or weed control at 62.5 g/ha: 62.5 g ai/ha, 100=total damage to plant, 0=no damage to plant, read-out: Barnyardgrass damage rating; for pest or weed control at 250 g/ha: 250 g ai/ha
How it was run: as §2

[13] = evaluated after 13 days, 100=total damage to plant, 0=no damage to plant

SMILES | pest or weed control at 15.625 g/ha [1] [%] | pest or weed control at 62.5 g/ha [1] [%] | pest or weed control at 250 g/ha [1] [%] | pest or weed control at 15.625 g/ha [2] [%] | pest or weed control at 62.5 g/ha [2, 13] [%] | pest or weed control at 15.625 g/ha [3] [%] | pest or weed control at 62.5 g/ha [3] [%] | pest or weed control at 250 g/ha [3] [%] | plant injury at 15.625 g/ha (corn (Zea mays) [4]) [%] | plant injury at 62.5 g/ha (corn (Zea mays) [4]) [%] | plant injury at 250 g/ha (corn (Zea mays) [4]) [%] | pest or weed control at 15.625 g/ha [5] [%] | pest or weed control at 62.5 g/ha [5] [%] | pest or weed control at 250 g/ha [5] [%] | pest or weed control at 15.625 g/ha [6] [%] | pest or weed control at 62.5 g/ha [6] [%] | pest or weed control at 250 g/ha [6] [%] | pest or weed control at 15.625 g/ha [7] [%] | pest or weed control at 62.5 g/ha [7] [%] | pest or weed control at 250 g/ha [7] [%] | further results
CN1C[C@H](c2cccc(C(F)(F)F)c2)[C@@H](C(=O)Nc2ccc(O)cc2F)C1=O (racemic) [Compound 1785] | 0 | 0 | 0 | 0 | 0 | 0 | 0 | 0 | 0 | 0 | 0 | 0 | 0 | 0 | 0 | 0 | 0 | 0 | 0 | 20 | pest or weed control at 15.625 g/ha [8]: 0%; pest or weed control at 62.5 g/ha [8]: 0%; pest or weed control at 250 g/ha [8]: 10%; pest or weed control at 15.625 g/ha [9]: 0%; pest or weed control at 62.5 g/ha [9]: 0%; pest or weed control at 250 g/ha [9]: 0%; plant injury at 15.625 g/ha (corn (Zea mays) [10]): 0%; plant injury at 62.5 g/ha (corn (Zea mays) [10]): 0%; plant injury at 250 g/ha (corn (Zea mays) [10]): 0%; pest or weed control at 15.625 g/ha [11]: 0%; pest or weed control at 62.5 g/ha [11]: 0%; pest or weed control at 250 g/ha [11]: 0%; pest or weed control at 15.625 g/ha [12]: 0%; pest or weed control at 62.5 g/ha [12]: 0%; pest or weed control at 250 g/ha [12]: 0%
CN1C[C@H](c2cccc(C(F)F)c2)[C@@H](C(=O)Nc2cnccc2C(F)(F)F)C1=O (racemic) [Compound 1742] | 0 | 20 | 30 | 70 | 80 | 0 | 0 | 40 | 0 | 0 | 70 | 0 | 10 | 20 | 0 | 70 | 80 | 0 | 10 | 20 | pest or weed control at 250 g/ha ([2]; 250 g ai/ha, evaluated after 13 days, 100=total damage to plant, 0=no damage to plant): 80%; pest or weed control at 15.625 g/ha [8]: 50%; pest or weed control at 62.5 g/ha [8]: 80%; pest or weed control at 250 g/ha [8]: 90%; pest or weed control at 15.625 g/ha [9]: 0%; pest or weed control at 62.5 g/ha [9]: 0%; pest or weed control at 250 g/ha [9]: 10%; plant injury at 15.625 g/ha (corn (Zea mays) [10]): 0%; plant injury at 62.5 g/ha (corn (Zea mays) [10]): 0%; plant injury at 250 g/ha (corn (Zea mays) [10]): 30%; pest or weed control at 15.625 g/ha [11]: 0%; pest or weed control at 62.5 g/ha [11]: 0%; pest or weed control at 250 g/ha [11]: 30%; pest or weed control at 15.625 g/ha [12]: 0%; pest or weed control at 62.5 g/ha [12]: 0%; pest or weed control at 250 g/ha [12]: 80%
